Data reported in ChEMBL document CHEMBL1138586 (Bioorg Med Chem Lett, 2009).
Values belong to the molecule of their own block, whether it stands above or below them.

Tests used:
[1] = Oral bioavailability in rat; format: ADME, organism-based; details: in vivo
Coagulation factor X = Coagulation factor X (Homo sapiens, UniProt P00742); assay: Inhibition of Factor 10a
[2] = Volume of distribution in rat at 0.2 mg/kg, iv and 6 mg/kg, po; format: ADME, organism-based; details: in vivo
[3] = Clearance in rat at 0.2 mg/kg, iv and 6 mg/kg, po; format: ADME, organism-based; details: in vivo
[4] = Oral bioavailability in rat at 6 mg/kg; format: ADME, organism-based; details: in vivo
[5] = Clearance in Beagle dog at 0.1 mg/kg, iv and 1 mg/kg, po; format: ADME, organism-based, Canis lupus familiaris; details: in vivo
[6] = Half life in rat at 0.2 mg/kg, iv and 6 mg/kg, po; format: ADME, organism-based; details: in vivo
[7] = Half life in cynomolgus monkey at 0.1 mg/kg, iv and 1 mg/kg, po; format: ADME, organism-based, Macaca fascicularis; details: in vivo
[8] = Inhibition of kallikrein
[9] = AUC in rat at 6 mg/kg, po; format: ADME, organism-based; parameters: dose 6 mg/kg, route oral; details: plasma
Prothrombin = Prothrombin (Homo sapiens, UniProt P00734); assay: Inhibition of thrombin
[10] = Clearance in rat; format: ADME, organism-based; details: in vivo
[11] = molecular target: Vitamin K-dependent protein C (Homo sapiens, UniProt P04070); assay: Inhibition of activated anticoagulant protein C
Sequence of Vitamin K-dependent protein C (P04070 43-197 limits assumed): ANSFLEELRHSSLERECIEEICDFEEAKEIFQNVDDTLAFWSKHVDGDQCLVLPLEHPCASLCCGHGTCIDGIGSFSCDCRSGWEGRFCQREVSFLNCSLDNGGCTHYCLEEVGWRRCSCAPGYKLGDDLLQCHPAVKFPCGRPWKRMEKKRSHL
Sequence of Vitamin K-dependent protein C (P04070 212-461 limits assumed): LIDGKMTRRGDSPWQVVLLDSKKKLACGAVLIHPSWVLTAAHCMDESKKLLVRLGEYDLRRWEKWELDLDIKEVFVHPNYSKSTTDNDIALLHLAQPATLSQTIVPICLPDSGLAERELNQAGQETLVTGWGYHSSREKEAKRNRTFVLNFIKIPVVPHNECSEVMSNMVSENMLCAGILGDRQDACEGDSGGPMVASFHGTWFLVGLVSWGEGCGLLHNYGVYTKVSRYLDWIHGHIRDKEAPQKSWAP

[12] = AUC in cynomolgus monkey at 1 mg/kg, po; format: ADME, organism-based, Macaca fascicularis; parameters: dose 1 mg/kg, route oral; details: plasma
[13] = Volume of distribution in cynomolgus monkey at 0.1 mg/kg, iv and 1 mg/kg, po; format: ADME, organism-based, Macaca fascicularis; details: in vivo
[14] = Oral bioavailability in cynomolgus monkey at 1 mg/kg; format: ADME, organism-based, Macaca fascicularis; details: in vivo
[15] = Clearance in cynomolgus monkey at 0.1 mg/kg, iv and 1 mg/kg, po; format: ADME, organism-based, Macaca fascicularis; details: in vivo
[16] = AUC in Beagle dog at 1 mg/kg, po; format: ADME, organism-based, Canis lupus familiaris; parameters: dose 1 mg/kg, route oral; details: plasma
[17] = molecular target: Tissue-type plasminogen activator (Homo sapiens, UniProt P00750); assay: Inhibition of tissue plasminogen activator
Sequence of Tissue-type plasminogen activator (P00750 whole entry): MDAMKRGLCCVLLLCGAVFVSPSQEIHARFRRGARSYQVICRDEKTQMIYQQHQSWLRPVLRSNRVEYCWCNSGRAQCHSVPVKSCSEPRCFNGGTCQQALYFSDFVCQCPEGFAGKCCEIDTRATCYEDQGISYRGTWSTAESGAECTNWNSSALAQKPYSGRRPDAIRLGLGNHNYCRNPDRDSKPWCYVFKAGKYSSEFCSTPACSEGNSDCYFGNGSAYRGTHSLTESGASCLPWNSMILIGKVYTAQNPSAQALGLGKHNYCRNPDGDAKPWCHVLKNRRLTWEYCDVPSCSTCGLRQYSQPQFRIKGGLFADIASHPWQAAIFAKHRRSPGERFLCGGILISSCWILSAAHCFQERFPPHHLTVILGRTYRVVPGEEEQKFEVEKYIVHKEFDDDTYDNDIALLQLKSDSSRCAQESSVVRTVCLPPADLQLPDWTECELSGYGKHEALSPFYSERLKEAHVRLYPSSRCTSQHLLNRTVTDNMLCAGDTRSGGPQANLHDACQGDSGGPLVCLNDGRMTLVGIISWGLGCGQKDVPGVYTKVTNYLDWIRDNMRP

Plasminogen = Plasminogen (Homo sapiens, UniProt P00747); assay: Inhibition of plasmin
Sequence of Plasminogen (P00747 97-580 limits assumed): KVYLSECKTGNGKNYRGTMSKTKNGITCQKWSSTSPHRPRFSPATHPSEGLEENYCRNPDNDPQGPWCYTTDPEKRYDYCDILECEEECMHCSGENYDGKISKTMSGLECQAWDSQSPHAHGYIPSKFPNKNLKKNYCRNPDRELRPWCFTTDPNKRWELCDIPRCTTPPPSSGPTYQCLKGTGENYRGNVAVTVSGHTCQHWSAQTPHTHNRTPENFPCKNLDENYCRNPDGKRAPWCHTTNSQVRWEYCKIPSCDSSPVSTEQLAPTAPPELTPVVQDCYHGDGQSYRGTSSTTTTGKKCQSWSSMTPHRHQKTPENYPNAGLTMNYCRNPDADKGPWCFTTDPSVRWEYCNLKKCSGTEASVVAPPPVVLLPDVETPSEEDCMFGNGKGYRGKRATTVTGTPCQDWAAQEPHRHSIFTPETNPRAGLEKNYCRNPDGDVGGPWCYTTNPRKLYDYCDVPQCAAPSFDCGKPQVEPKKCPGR
Sequence of Plasminogen (P00747 581-810 limits assumed): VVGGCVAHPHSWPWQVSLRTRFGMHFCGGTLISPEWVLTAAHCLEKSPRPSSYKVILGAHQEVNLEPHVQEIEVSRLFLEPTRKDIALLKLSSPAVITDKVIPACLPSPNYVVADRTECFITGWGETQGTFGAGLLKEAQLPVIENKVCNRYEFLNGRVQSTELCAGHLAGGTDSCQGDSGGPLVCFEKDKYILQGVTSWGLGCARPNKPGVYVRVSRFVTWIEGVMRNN

[18] = Oral bioavailability in Beagle dog at 1 mg/kg; format: ADME, organism-based, Canis lupus familiaris; details: in vivo
[19] = Inhibition of trypsin
[20] = Volume of distribution in Beagle dog at 0.1 mg/kg, iv and 1 mg/kg, po; format: ADME, organism-based, Canis lupus familiaris; details: in vivo
[21] = molecular target: Voltage-gated inwardly rectifying potassium channel KCNH2 (Homo sapiens, UniProt Q12809)
Sequence of Voltage-gated inwardly rectifying potassium channel KCNH2 (Q12809 whole entry): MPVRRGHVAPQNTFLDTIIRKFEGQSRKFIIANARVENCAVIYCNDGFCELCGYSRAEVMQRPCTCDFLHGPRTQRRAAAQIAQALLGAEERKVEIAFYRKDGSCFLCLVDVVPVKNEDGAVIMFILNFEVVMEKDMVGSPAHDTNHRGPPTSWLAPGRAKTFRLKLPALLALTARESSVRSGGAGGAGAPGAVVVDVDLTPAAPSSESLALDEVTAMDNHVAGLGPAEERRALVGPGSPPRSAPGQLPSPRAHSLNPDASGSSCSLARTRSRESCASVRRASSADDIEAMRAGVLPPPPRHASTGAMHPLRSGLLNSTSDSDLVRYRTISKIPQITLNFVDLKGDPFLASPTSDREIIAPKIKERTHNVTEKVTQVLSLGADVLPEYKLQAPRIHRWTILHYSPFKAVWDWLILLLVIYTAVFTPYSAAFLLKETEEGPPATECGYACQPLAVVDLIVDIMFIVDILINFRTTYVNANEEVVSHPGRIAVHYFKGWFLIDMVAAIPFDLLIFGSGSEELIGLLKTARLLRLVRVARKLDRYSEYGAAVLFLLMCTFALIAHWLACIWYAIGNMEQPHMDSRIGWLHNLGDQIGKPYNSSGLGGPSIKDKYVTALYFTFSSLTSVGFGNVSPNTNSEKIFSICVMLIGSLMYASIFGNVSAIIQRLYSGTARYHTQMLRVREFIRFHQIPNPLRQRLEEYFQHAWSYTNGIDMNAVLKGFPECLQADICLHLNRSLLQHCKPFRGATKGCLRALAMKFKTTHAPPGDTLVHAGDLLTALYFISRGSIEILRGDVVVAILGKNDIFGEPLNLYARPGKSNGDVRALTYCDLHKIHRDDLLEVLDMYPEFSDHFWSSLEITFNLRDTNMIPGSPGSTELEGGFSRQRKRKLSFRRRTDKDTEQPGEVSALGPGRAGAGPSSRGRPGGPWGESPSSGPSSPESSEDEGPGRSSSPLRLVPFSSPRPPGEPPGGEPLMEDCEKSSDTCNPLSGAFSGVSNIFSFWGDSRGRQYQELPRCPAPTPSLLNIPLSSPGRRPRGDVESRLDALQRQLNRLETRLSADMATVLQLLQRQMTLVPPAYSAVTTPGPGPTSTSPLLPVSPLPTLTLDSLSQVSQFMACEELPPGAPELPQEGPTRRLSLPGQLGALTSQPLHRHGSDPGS

[22] = Half life in Beagle dog at 0.1 mg/kg, iv and 1 mg/kg, po; format: ADME, organism-based, Canis lupus familiaris; details: in vivo
[23] = Half life in rat; format: ADME, organism-based; details: in vivo

Sequence of Coagulation factor X (P00742 41-179 limits assumed): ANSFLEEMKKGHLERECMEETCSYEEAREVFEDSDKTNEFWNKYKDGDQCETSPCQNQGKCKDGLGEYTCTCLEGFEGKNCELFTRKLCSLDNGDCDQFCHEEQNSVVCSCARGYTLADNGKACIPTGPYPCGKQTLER
Sequence of Coagulation factor X (P00742 235-488 limits assumed): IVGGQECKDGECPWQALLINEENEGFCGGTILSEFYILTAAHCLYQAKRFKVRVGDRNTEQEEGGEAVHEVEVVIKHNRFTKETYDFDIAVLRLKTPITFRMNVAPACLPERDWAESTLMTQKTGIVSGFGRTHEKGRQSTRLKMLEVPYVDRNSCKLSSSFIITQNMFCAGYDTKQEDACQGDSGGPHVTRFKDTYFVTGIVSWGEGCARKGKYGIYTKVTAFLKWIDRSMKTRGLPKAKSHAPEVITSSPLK

SMILES: COc1ccc(NC(=O)c2ccc(C(=N)N(C)C)cc2N2CCCCC2)c(C(=O)Nc2ccc(Cl)cn2)c1
IC50 (Coagulation factor X): 2 nM

SMILES: CN(C)C(=N)c1ccc(C(=O)Nc2ccc(OCC(=O)O)cc2C(=O)Nc2ccc(Cl)cn2)cc1
bioavailability [1]: < 5%
IC50 (Coagulation factor X): 6 nM

SMILES: N=C(c1ccc(C(=O)Nc2ccc(Cl)cc2C(=O)Nc2ccc(Cl)cn2)cc1)N1CCC(C(=O)O)CC1
IC50 (Coagulation factor X): 2 nM

SMILES: CN(C)C(=N)c1ccc(C(=O)Nc2ccc(Cl)cc2C(=O)Nc2ccc(Cl)nc2)cc1
IC50 (Coagulation factor X): 3 nM

SMILES: COc1cc(C(=O)Nc2ccc(Cl)cc2C(=O)Nc2ccc(Cl)cn2)ccc1C(=N)N(C)C
IC50 (Coagulation factor X): 7 nM

SMILES: CN(C)C(=N)c1ccc(C(=O)Nc2ccc(Cl)cc2C(=O)Nc2ccc(Cl)cn2)c(N2CCCC2)c1
bioavailability [1]: 6.9%
IC50 (Coagulation factor X): 2 nM

SMILES: CN(C)C(=N)c1ccc(C(=O)Nc2ccc(Cl)cc2C(=O)Nc2ccc(Cl)s2)cc1
IC50 (Coagulation factor X): 6 nM

SMILES: CN(C)C(=N)c1ccc(C(=O)Nc2c(Cl)cccc2C(=O)Nc2ccc(Cl)cn2)cc1
IC50 (Coagulation factor X): 21 nM

SMILES: CN(C)C(=N)c1ccc(C(=O)Nc2ccc(S(C)(=O)=O)cc2C(=O)Nc2ccc(Cl)cn2)cc1
IC50 (Coagulation factor X): 1.5 nM

SMILES: CN(C)C(=N)c1ccc(C(=O)Nc2ccsc2C(=O)Nc2ccc(Cl)cn2)cc1
IC50 (Coagulation factor X): 2 nM

SMILES: CN(C)C(=N)c1ccc(C(=O)Nc2ccc(Cl)cc2C(=O)Nc2ccc(F)cn2)cc1
IC50 (Coagulation factor X): 3 nM

SMILES: CN(C)C(=N)c1ccc(C(=O)Nc2ccc(Cl)cc2C(=O)Nc2ccc(Cl)cn2)c(N(C)C)c1
IC50 (Coagulation factor X): 3 nM

SMILES: CN(C)C(=N)c1ccc(C(=O)Nc2cc(Cl)ccc2C(=O)Nc2ccc(Cl)cn2)cc1
IC50 (Coagulation factor X): 2 nM

SMILES: N=C(c1ccc(C(=O)Nc2ccc(Cl)cc2C(=O)Nc2ccc(Cl)cn2)cc1)N1CCCC1
IC50 (Coagulation factor X): 2 nM

SMILES: CN1CCN=C1c1ccc(C(=O)Nc2ccc(Cl)cc2C(=O)Nc2ccc(Cl)cn2)cc1
IC50 (Coagulation factor X): 1.5 nM

SMILES: CN(C)C(=N)c1ccc(C(=O)Nc2ccc(OC(F)(F)F)cc2C(=O)Nc2ccc(Cl)cn2)cc1
IC50 (Coagulation factor X): 17 nM

SMILES: CCN1CCN=C1c1ccc(C(=O)Nc2ccc(Cl)cc2C(=O)Nc2ccc(Cl)cn2)cc1
IC50 (Coagulation factor X): 6 nM

SMILES: CN(C)C(=N)c1ccc(C(=O)Nc2ccc(OCC(F)(F)F)cc2C(=O)Nc2ccc(Cl)cn2)cc1
IC50 (Coagulation factor X): 10 nM

SMILES: CN(C)C(=N)c1ccc(C(=O)Nc2ccc(F)cc2C(=O)Nc2ccc(Cl)cn2)cc1
IC50 (Coagulation factor X): 1.4 nM

SMILES: N=C(c1ccc(C(=O)Nc2ccc(Cl)cc2C(=O)Nc2ccc(Cl)cn2)cc1)N1CCOCC1
IC50 (Coagulation factor X): 2 nM

SMILES: CN(C)C(=N)c1ccc(C(=O)Nc2ccc(Cl)cc2C(=O)Nc2ccc(Cl)cn2)cn1
IC50 (Coagulation factor X): 3 nM

SMILES: CN(C)C(=N)c1ccc(C(=O)Nc2c(C(=O)Nc3ccc(Cl)cn3)cc(Cl)cc2N2CCOCC2)cc1
IC50 (Coagulation factor X): 1.3 nM

SMILES: CN(C)C(=N)c1ccc(C(=O)Nc2ccc(C(F)(F)F)cc2C(=O)Nc2ccc(Cl)cn2)cc1
IC50 (Coagulation factor X): 1.3 nM

The next lines start with results.

bioavailability [1]: < 5%
IC50 (Coagulation factor X): 0.9 nM
SMILES: COc1ccc(NC(=O)c2ccc(C(=N)N(C)C)cc2N2CCC(C(=O)O)CC2)c(C(=O)Nc2ccc(Cl)cn2)c1

bioavailability [1]: 21.3%
IC50 (Coagulation factor X): < 0.5 nM
SMILES: CN(C)C(=N)c1ccc(C(=O)Nc2ccc(Cl)cc2C(=O)Nc2ccc(Cl)cn2)c(N2CCCCC2)c1

IC50 (Coagulation factor X): 0.7 nM
SMILES: CN(C)C(=N)c1ccc(C(=O)Nc2ccc(Cl)cc2C(=O)Nc2ccc(Cl)cn2)c(N2CCC(C(=O)O)CC2)c1

IC50 (Coagulation factor X): 1.1 nM
SMILES: Cc1ccc(NC(=O)c2cc(Cl)ccc2NC(=O)c2ccc(C(=N)N(C)C)cc2)nc1

IC50 (Coagulation factor X): 0.7 nM
SMILES: CN(C)C(=N)c1ccc(C(=O)Nc2ccc(Cl)cc2C(=O)Nc2ccc(Cl)cc2)cc1

IC50 (Coagulation factor X): 0.9 nM
SMILES: C#Cc1ccc(NC(=O)c2cc(Cl)ccc2NC(=O)c2ccc(C(=N)N(C)C)cc2)cc1

IC50 (Coagulation factor X): 1.1 nM
SMILES: CN(C)C(=N)c1ccc(C(=O)Nc2ccc(Cl)cc2C(=O)Nc2ccc(Cl)cn2)cc1F

IC50 (Coagulation factor X): 0.7 nM
SMILES: CN(C)C(=N)c1ccc(C(=O)Nc2ccc(Cl)cc2C(=O)Nc2ccc(Cl)cn2)c(N2CCOCC2)c1

IC50 (Coagulation factor X): 1 nM
SMILES: CN(C)C(=N)c1ccc(C(=O)Nc2ccc(Cl)cc2C(=O)Nc2ccc(Cl)cn2)c(N2CCCCCC2)c1

IC50 (Coagulation factor X): 1.3 nM
SMILES: CCSc1ccc(NC(=O)c2ccc(C(=N)N(C)C)cc2)c(C(=O)Nc2ccc(Cl)cn2)c1

IC50 (Coagulation factor X): 0.6 nM
SMILES: CCOc1cc(Cl)cc(C(=O)Nc2ccc(Cl)cn2)c1NC(=O)c1ccc(C(=N)N(C)C)cc1

IC50 (Coagulation factor X): 0.5 nM
SMILES: COc1cc(C(=N)N(C)C)ccc1C(=O)Nc1ccc(Cl)cc1C(=O)Nc1ccc(Cl)cn1

IC50 (Coagulation factor X): 1.2 nM
SMILES: COCCOc1cc(C(=N)N(C)C)ccc1C(=O)Nc1ccc(Cl)cc1C(=O)Nc1ccc(Cl)cn1

IC50 (Coagulation factor X): 0.5 nM
SMILES: CCN(C)c1cc(Cl)cc(C(=O)Nc2ccc(Cl)cn2)c1NC(=O)c1ccc(C(=N)N(C)C)cc1

Vd [2]: 6.9 L/kg
bioavailability [1]: 38%
clearance [3]: 15.3 mL/min/kg
bioavailability [4]: 38%
clearance [5]: 30.5 mL/min/kg
half-life [6]: 5.2 h
half-life [7]: 22.8 h
IC50 [8]: 540 nM
AUC [9]: 2420 ng·h/mL
IC50 (Prothrombin): > 10000 nM
clearance [10]: 15.3 mL/min/kg
IC50 [11]: > 10000 nM
AUC [12]: 1300 ng·h/mL
Vd [13]: 20.5 L/kg
bioavailability [14]: 86.1%
clearance [15]: 11.2 mL/min/kg
AUC [16]: 381 ng·h/mL
IC50 [17]: > 10000 nM
IC50 (Plasminogen): > 10000 nM
bioavailability [18]: 68.8%
IC50 [19]: > 10000 nM
Vd [20]: 35.1 L/kg
half-life [22]: 13.1 h
IC50 (Coagulation factor X): < 0.5 nM
Ki (Coagulation factor X): 0.06 nM
SMILES: CN(C)C(=N)c1ccc(C(=O)Nc2ccc(Cl)cc2C(=O)Nc2ccc(Cl)cn2)c(F)c1
Ki [21]: 420 nM

bioavailability [1]: 8.1%
IC50 (Coagulation factor X): 1.2 nM
SMILES: COCCN(C)c1cc(Cl)cc(C(=O)Nc2ccc(Cl)cn2)c1NC(=O)c1ccc(C(=N)N(C)C)cc1

IC50 (Coagulation factor X): < 0.5 nM
SMILES: CN(C)CCOc1cc(C(=N)N(C)C)ccc1C(=O)Nc1ccc(Cl)cc1C(=O)Nc1ccc(Cl)cn1

IC50 (Coagulation factor X): 0.9 nM
SMILES: CN(C)C(=N)c1ccc(C(=O)Nc2c(C(=O)Nc3ccc(Cl)cn3)cc(Cl)cc2N2CCCCC2)cc1

IC50 (Coagulation factor X): 0.4 nM
SMILES: CN(C)C(=N)c1ccc(C(=O)Nc2ccc(Cl)cc2C(=O)Nc2ccc(Cl)cn2)c(N2CCC2)c1

IC50 (Coagulation factor X): 1.3 nM
SMILES: N=C(c1ccc(C(=O)Nc2ccc(Cl)cc2C(=O)Nc2ccc(Cl)cn2)cc1)N1CCCCC1

IC50 (Coagulation factor X): 1 nM
SMILES: CN(C)C(=N)c1csc(C(=O)Nc2ccc(Cl)cc2C(=O)Nc2ccc(Cl)cn2)c1

IC50 (Coagulation factor X): 0.7 nM
SMILES: Cc1ccc(NC(=O)c2ccc(C(=N)N(C)C)cc2)c(C(=O)Nc2ccc(Cl)cn2)c1

IC50 (Coagulation factor X): 0.5 nM
SMILES: CC(C)Oc1cc(Cl)cc(C(=O)Nc2ccc(Cl)cn2)c1NC(=O)c1ccc(C(=N)N(C)C)cc1

IC50 (Coagulation factor X): 1 nM
SMILES: CCc1ccc(NC(=O)c2ccc(C(=N)N(C)C)cc2)c(C(=O)Nc2ccc(Cl)cn2)c1

bioavailability [1]: 27.9%
half-life [23]: 8.4 h
clearance [10]: 74.8 mL/min/kg
IC50 (Coagulation factor X): < 0.5 nM
SMILES: C#Cc1ccc(NC(=O)c2ccc(C(=N)N(C)C)cc2)c(C(=O)Nc2ccc(Cl)cn2)c1

IC50 (Coagulation factor X): 0.5 nM
SMILES: CN(C)C(=N)c1ccc(C(=O)Nc2c(C(=O)Nc3ccc(Cl)cn3)cc(Cl)cc2N(C)C)cc1

IC50 (Coagulation factor X): 0.5 nM
SMILES: COCCN(C)c1cc(C(=N)N(C)C)ccc1C(=O)Nc1ccc(Cl)cc1C(=O)Nc1ccc(Cl)cn1

bioavailability [1]: 11.2%
IC50 (Coagulation factor X): 0.6 nM
SMILES: COc1cc(Cl)cc(C(=O)Nc2ccc(Cl)cn2)c1NC(=O)c1ccc(C(=N)N(C)C)cc1

IC50 (Coagulation factor X): 0.9 nM
SMILES: CCN(C)C(=N)c1ccc(C(=O)Nc2ccc(Cl)cc2C(=O)Nc2ccc(Cl)cn2)cc1

IC50 (Coagulation factor X): 1.2 nM
SMILES: CN(C)C(=N)c1ccc(C(=O)Nc2ccc(C#N)cc2C(=O)Nc2ccc(Cl)cn2)cc1

IC50 (Coagulation factor X): 1.2 nM
SMILES: N=C(c1ccc(C(=O)Nc2ccc(Cl)cc2C(=O)Nc2ccc(Cl)cn2)cc1)N1CCC1
